Laboratory results taken from patent US20090088376A1, “DENDRIMER BASED COMPOSITIONS AND METHODS OF USING THE SAME” (priority 2007, published 2009).

Legend:
SCC15 cells = test: XTT cell proliferation assay; assay type: cell-based, human; settings: methotrexate 100 nM, G5-FI-EGF 100 nM, 3 days
Description: XTT assay. For cytotoxicity experiments, cells (2500 cells/well) were seeded in 96-well microtiter plates in DMEM containing 10% FCS. The cells were treated either with 100 nM each of the conjugates for 72 h. A calorimetric XTT assay, Roche Molecular Biochemicals (Indianapolis, Ind.) was performed following the vendor's protocol. After incubation with an XTT labeling mixture, microtiter plates were read on an ELISA reader (SYNERGY HT, BIOTEK) at 492 nm with the reference wavelength at 690 nm. Vehicle-treated cells were assigned a value of 100%.

[1] = Toxicity of dendrimer conjugates and free methotrexate (body weight, histopathology)
Description: (§1) Twice weekly, SCID mice with s.c. KB xenografts, starting on day 4 after tumor implantation, received via the tail vein an injection of either targeted or nontargeted conjugate containing methotrexate, a conjugate without methotrexate, free methotrexate, or saline as a control. The compounds were delivered in a 0.2 mL volume of saline per 20 g of mouse. The single dose of methotrexate delivered each time equaled 0.33 mg/kg. The higher doses of 1.67 and 3.33 mg/kg free methotrexate were also tested. The conjugates were delivered at equimolar concentration of methotrexate calculated based on the number of methotrexate molecules present in a nanoparticle. The conjugate without methotrexate was delivered at equimolar concentration of dendrimer. In the initial trial, six groups of mice with five mice in each group received up to 15 injections. In the follow-up trial, mice received up to 28 injections dependent on their survival. The body weights of the mice were monitored throughout the experiment as an indication of adverse effects of the drug. Histopathology of multiple organs was done at the termination of each trial and each time mouse had to be euthanized due to toxic effects or tumor burden. Tissues from lung, heart, liver, pancreas, spleen, kidney, and tumor were analyzed.
(§2) At each time point, a gross examination and histopathology of the liver, spleen, kidney, lung, and heart were done.

KB cells = test: Inhibition of cell growth (XTT assay / total cell protein); assay type: cell-based, human
Description: Cell culture and treatment.
Evaluation of dendrimer cytotoxicity. Cell growth was determined by assay of the total protein in lysates of treated cells using a bicinchoninic acid reagent (PIERCE, and by XTT assay, using a kit from Roche.
Because the binding of the conjugate to KB cells reaches maximal uptake within 1 h (Quintana et al, 2002. Pharmaceutical Research 19: 1310-1316.), the effect of the G5-FI-FA-MTX on cell growth was initially tested by pre-incubation of cells with the conjugate for 1 h, followed by incubation in a drug-free medium for 5 d. […] When the cells were pre-incubated with dendrimers for 4 h, there was a modest decrease of about 10% in cell growth as determined by XTT assay. The cytotoxicity measurements were therefore done by incubation with the dendrimer for a minimum of 24 h, a pre-incubation time period shown to induce significant cytotoxicity.
Time course and dose dependent inhibition of cell growth. Previous studies have shown that MTX-induced cytotoxicity is detectable in vitro only if the medium is completely deprived of FA (See, e.g., Sobrero & Bertino, Int. J. Cell Cloning 4, 51 (1986)). The effect of the trifunctional dendrimers on cell growth was tested in cells incubated in a FA-deficient medium. Cells were treated with 300 nM conjugates (equivalent of 1500 nM MTX) or 1500 nM free MTX for 1-4 days, and cell proliferation was determined by estimation of cellular protein content. Cells were treated for 2 days with different concentrations of the conjugates or free MTX (the conjugate concentration is given as MTX equivalents, with 5 MTX per dendrimer molecule). KB cells which express high and low FAR were incubated with 30 nM of the dendrimers for 1 hr at 37° C., rinsed, and the fluorescence of cells was determined by flow cytometric analysis (See. e.g., FIG. 21, left panel). Pre-incubation with 50 µM free FA for 30 min totally prevents cellular binding and uptake of the polymer conjugates (See. e.g., FIG. 21, left panel).
The inhibition of cell growth induced by the conjugates was also tested by XTT assay which is based on the conversion of XTT to formazan by the active mitochondria of live cells (See, e.g., Roehm et al, J Immunol Methods 142, 257 (1991)).

s.c. human KB xenografts = test: Targeted drug delivery: tumor growth and survival; assay type: in vivo, SCID mice; settings: for effect on tumor growth: first trial
Description: Tumor cell line. The KB human cell line, which overexpresses the folate receptor (See, e.g., Turek et al, J Cell Sci 106, 423 (1993)), was purchased from the American Type Tissue Collection (Manassas, Va.) and maintained in vitro at 37° C., 5% CO2 in folate-deficient RPMI 1640 supplemented with penicillin (100 units/mL), streptomycin (100 μg/mL), and 10% heat-inactivated fetal bovine serum. Before injection in the mice, the cells were harvested with trypsin-EDTA solution, washed, and resuspended in PBS. The cell suspension (5×10^6 cells in 0.2 mL) was injected s.c. into one flank of each mouse using a 30-gauge needle. In the biodistribution studies, the tumors were allowed to grow for 2 weeks until reaching ˜0.9 cm^3 in volume. The formula chosen to compute tumor volume was for a standard volume of an ellipsoid, where V=4/3π(½ length×½ width×½ depth). With an assumption that width equals depth and […], the formula used was V=½×length×width^2. Targeted drug delivery using conjugate injections was started on the fourth day after implantation of the KB cells.
Delivery of targeted nanoparticle therapeutic.
Statistical methods. Means, SD, and SE of the data were calculated. Differences between the experimental groups and the control groups were tested using Student's-Newman-Keuls' test and Ps<0.05 were considered significant.
Targeted drug delivery to tumor cells through the folate receptor. The efficacy of different doses of conjugates was tested on SCID CB-17 mice bearing s.c. human KB xenografts and was compared with equivalent and higher doses of free methotrexate. Mice were maintained on the folic acid-deficient diet for 3 weeks before injection of the KB tumor cells to achieve circulating levels of folic acid that approach those in human serum and to prevent down-regulation of folate receptors on tumor xenografts (See, Mathias et al., J Nucl Med 29, 1579 (1998)). Six groups of SCID mice with five mice in each group were injected s.c. on one flank with 5×10^6 KB cells in 0.2 mL PBS suspension. The highest total dose of G5-FI-FA-MTX therapeutic used equals 55.0 mg/kg and is equivalent to a 5.0 mg/kg total cumulative dose of free methotrexate (FIG. 29). The therapeutic dose of the conjugate was compared with three cumulative doses of free methotrexate equivalent to 33.3, 21.7, and 5.0 mg/kg accumulated in 10 to 15 injections based on mouse survival. Saline and the conjugate without methotrexate (G5-FT-FA) were used as controls.

[2] = mouse, in vivo
Description: as §1, §2

| Compound | inhibition of cell growth in G5-FI-EGF-treated cells (SCC15 cells) | day of trial by which doses became lethal ([1]; cumulative doses 33.3 and 21.7 mg/kg) [days] | toxicity ([1]; total accumulated dose equivalent to 5.0 mg/kg free methotrexate) | inhibition of cell growth (KB cells; XTT assay, 1, 2 or 3 days) | growth inhibition of free MTX compared with conjugate (KB cells; equimolar MTX, below 1 μM) | effect on tumor growth (s.c. human KB xenografts; cumulative 33.3 and 21.7 mg/kg) | effect on tumor growth (s.c. human KB xenografts; dose equivalent to 5.0 mg/kg cumulative methotrexate (or equimolar dendrimer)) | day of trial by which all mice died (s.c. human KB xenografts; second 99-day trial) [days] | survivors at the termination of the trial (s.c. human KB xenografts; second 99-day trial) | histopathology of the liver [2] | reversal by free FA of growth-arrest caused by MTX (KB cells; 150 nM FA, 150 nM MTX, 24 h then 6 d fresh medium, total cell protein) | increase of cell growth above control cells by excess free FA (KB cells; 50 μM FA with MTX or G5-FITC-FA-MTX 24 h, then 5 days, XTT) [%] |
| --- | --- | --- | --- | --- | --- | --- | --- | --- | --- | --- | --- | --- |
| CN(Cc1cnc2nc(N)nc(N)c2n1)c1ccc(C(=O)N[C@@H](CCC(=O)O)C(=O)O)cc1 [MTX, methotrexate] | inhibited cell growth in the G5-FI-EGF-treated cells to a greater extent than its inhibition of control cells | 32 to 36 | nor free methotrexate at the same dose were toxic | time-dependent cytotoxicity | higher than with the equimolar concentrations of MTX in the G5-FITC-FA-MTX | affecting tumor growth | no effect on tumor growth | ≤ 66 | no mice surviving | advanced liver lesions, collections of inflammatory cells, and periportal inflammation |  |  |
| Nc1nc2ncc(CNc3ccc(C(=O)N[C@@H](CCC(=O)O)C(=O)O)cc3)nc2c(=O)[nH]1 [FA, folic acid] |  |  |  |  |  |  |  |  |  |  | almost completely reversed | 20 |
